Data reported in patent US20090270431A1, “Cyclopentenol Nucleoside Compounds Intermediates for their Synthesis and Methods of Treating Viral Infections” (THE UNIVERSITY OF GEORGIA RESEARCH FOUNDATION, priority 2005, published 2009).
“And” between values parts separate entries of the source, which are not always exact repeats. Identical values can stand only once. “Also recorded” adds a separate entry of the source. Counter-ions that a name gives are not always drawn. Like-named read-outs stand apart in the source and are kept apart here.

Assays:
[1] = toxicity (CC50) in the anti-HBV test; assay type: cell-based
Hepatitis B Virus [2] = assay: in vitro anti-HBV activity, VIR (extracellular virion HBV DNA); assay type: cell-based
Protocol: (§1) In the first biological experiment, a number of 7-deazaneplanocin compounds were tested in vitro to determine activity against hepatitis B virus (HBV).

Hepatitis B Virus [3] = assay: in vitro anti-HBV activity, RI (intracellular HBV DNA replication intermediates); assay type: cell-based; conditions: Hepatitis B virus
Protocol: as §1

cowpox virus = assay type: cell-based; conditions: against cowpox virus
SARS virus = assay type: cell-based; conditions: against SARS virus
vacinnia virus = assay type: cell-based; conditions: against vacinnia virus
HBV strain WT = assay: HBV DR Assay, strain WT; assay type: cell-based; conditions: Hepatitis B virus
Vaccinia = assay: microbe, parasite or virus in culture; assay type: cell-based, vaccinia virus
HSV-2 = assay: CPE assay, HSV-2 in HFF cells; assay type: cell-based, herpes simplex virus type 2; conditions: Human alphaherpesvirus 2
Adeno = assay: antiviral assay, Adeno in A-549; assay type: cell-based; conditions: unidentified adenovirus, A549, Adeno
Yellow Fever = assay: organism not typed; assay type: cell-based; conditions: Vero
Cowpox = assay: microbe, parasite or virus in culture; assay type: cell-based, cowpox virus
HSV-1 = assay: CPE assay, HSV-1 in HFF cells; assay type: cell-based, herpes simplex virus type 1; conditions: Human alphaherpesvirus 1
HCV RNA replicon = HCV RNA replicon assay; assay type: cell-based, hepatitis C virus (HCV); conditions: Hepatitis C virus, Huh7 ET, HCV; HRR (HCV RNA replicon); Huh7 ET; read-out: EC50
Protocol: A number of […] 7-deazaneplanocin compounds were tested in vitro to determine activity against hepatitis C virus (HCV).

RSV A = assay: antiviral assay, RSV A in MA-104; assay type: cell-based; conditions: human respiratory syncytial virus, MA104, RSV A
PIV = assay: antiviral assay, PIV in MA-104; assay type: cell-based, parainfluenza virus
SARS = assay: organism not typed; assay type: cell-based; conditions: Vero 76
Flu A (H5N1) = assay: microbe, parasite or virus in culture; assay type: cell-based
Flu A (H1N1) = assay: microbe, parasite or virus in culture; assay type: cell-based
Flu A (H3N2) = assay: microbe, parasite or virus in culture; assay type: cell-based
Rhinovirus = assay: antiviral assay, Rhinovirus in HeLa Ohio-1; assay type: cell-based; conditions: Enterovirus, HeLa Ohio1, RV, HO-1
Flu A = assay: organism not typed; assay type: cell-based
Measles = assay: antiviral assay, Measles in CV-1; assay type: cell-based; conditions: Measles morbillivirus
VZV = assay: CPE assay, VZV in HFF cells; assay type: cell-based, varicella zoster virus; conditions: Human alphaherpesvirus 3
HCMV = assay: CPE assay, HCMV in HFF cells; assay type: cell-based, human cytomegalovirus; conditions: Human betaherpesvirus 5
Flu B = assay type: cell-based; conditions: MDCK
Dengue = assay: antiviral assay, Dengue in Vero; assay type: cell-based
Tacaribe = assay type: cell-based; conditions: Vero 76
RVF = assay type: cell-based
VEE = assay type: cell-based
[4] = stability of the isolated compound on standing; assay type: physicochemical; conditions: room temperature, over several days
[5] = test system: vacinnia, cowpox and SARS viruses; assay type: cell-based
[6] = Hepatitis B virus, VIR: extracellular virion HBV DNA

C=Cc1cn([C@@H]2C=C(CO)[C@H](O)C2O)c2ncnc(N)c12 (stereo partly shown) [Compound 25, 7-Deaza-7-Vinyl-Substituted Neplanocin A]
CC50 [1]: > 300 µM | EC50 (Hepatitis B Virus [2]; [6]): 3.3 µM | EC90 (Hepatitis B Virus [2]; [6]): 9.1 µM | EC50 (Hepatitis B Virus [3]): 10 µM | EC90 (Hepatitis B Virus [3]): 26 µM | melting point: 168 to 170 °C

NC(=O)c1cn(C2C=C(CO)C(O)C2O)nn1 (stereo not shown) [Compound 17c, 1-(4,5-Dihydroxy-3-hydroxymethyl-cyclopenten-2-enyl)-1H-[1,2,3]triazole-4-carboxylic acid amide]
EC50 (cowpox virus): 39 µM | EC50 (SARS virus): 47 µM | EC50 (vacinnia virus): 0.4 µM

1-(4,5-Dihydroxy-3-hydroxymethyl-cyclopenten-2-enyl)-1H-[1,2,4]triazole-3-carboxylic acid amide [Compound 17a]
EC50 (SARS virus): 21 µM

C#Cc1cn([C@@H]2C=C(CO)C(O)C2O)c2ncnc(N)c12 (stereo partly shown) [Compound 27, 7-Deaza-7-Acetylene-Neplanocin A]
EC50 (HBV strain WT): 2.5 µM | EC90 (HBV strain WT): 8.7 µM | CC50 [1]: > 300 µM | EC50 (Hepatitis B Virus [2]; [6]): 0.315 µM | EC90 (Hepatitis B Virus [2]; [6]): 1.6 µM | EC50 (Hepatitis B Virus [3]): 1.8 µM | EC90 (Hepatitis B Virus [3]): 7.9 µM | melting point: 126 to 128 °C

Nc1nccc2c1ncn2[C@@H]1C=C(CO)[C@@H](O)[C@H]1O [Compound 3-DNPA, (−)-1-[(1R,4R,5S)-3-(Hydroxymethyl)-4,5-dihydroxy-2-cyclopenten-1-yl]-4-aminoimidazo[4,5-c]pyridine Hydrochloride]
EC50 (Vaccinia; Orthopoxvirus vaccinia, HFF): 2.9 µM | EC50 (HSV-2): 43.5 µM | EC50 (Adeno; NR): 17 µM | EC50 (Adeno; Visual): 24 µM | EC50 (Yellow Fever): > 100 µM | EC50 (Yellow Fever; YF, Visual): > 100 µM | EC50 (Hepatitis B Virus [2]; Hepatitis B virus, HBV, VIR, Huh7 ET (Table 3)): 0.59 µM | EC50 (Cowpox; Cowpox virus, HFF): 182 µM | EC50 (HSV-1): > 300 µM | EC50 (HCV RNA replicon): 1.44 µM | EC50 (RSV A; NR): 4 µM | EC50 (RSV A; Visual): 100 µM | EC50 (PIV; MA104, NR): > 100 µM | EC50 (PIV; Visual): > 100 µM | EC50 (SARS; SARS, Visual): > 100 µM | EC50 (SARS): > 100 µM | EC50 (Flu A (H5N1); Flu A (H5N1), Visual, MDCK): > 100 µM | EC50 (Flu A (H5N1); Influenza A virus, H5N1, MDCK): > 100 µM | EC50 (Flu A (H1N1); Influenza A virus, H1N1, MDCK, NR): > 25 µM | EC50 (Flu A (H1N1); Influenza A virus, H1N1, MDCK, Visual): > 100 µM | EC50 (Flu A (H3N2); Flu A (H3N2), Visual, MDCK): > 100 µM | EC50 (Flu A (H3N2); Influenza A virus, H3N2, MDCK): > 100 µM | EC50 (Rhinovirus; NR): 4 µM | EC50 (Rhinovirus; Visual): 32 µM | EC50 (Flu A): > 100 µM | EC50 (Measles; NR): 0.4 µM | EC50 (Measles; Visual): 0.9 µM | EC50 (VZV): > 300 µM | EC50 (HCMV): 0.36 µM

Nc1nccc2ncn([C@@H]3C=C(CO)[C@@H](O)[C@H]3O)c12 [Compound N7-3-DNPA]
EC50 (Flu B; NR): 34 µM | EC50 (Flu B; Visual): 8 µM | EC50 (Vaccinia; VV, CPE, HFF Cells (Table 3), read-out: EC50): > 300 µM | EC50 (Dengue; NR): > 100 µM | EC50 (Dengue; Visual): > 100 µM | EC50 (Tacaribe; NR): 85 µM | EC50 (Tacaribe; Visual): 52 µM | EC50 (Yellow Fever; YF, NR, read-out: EC50): > 100 µM | EC50 (Yellow Fever; YF, Visual, read-out: EC50): > 100 µM | EC50 (Hepatitis B Virus [2]; HBV, VIR, Huh7 ET (Table 3)): > 10 µM | EC50 (Cowpox; Cowpox, CPE, HFF Cells (Table 3), read-out: EC50): 273 µM | EC50 (RVF): > 100 µM | EC50 (VEE): 84.6 µM and > 100 µM | EC50 (SARS; SARS, NR (Neutral Red), read-out: EC50): > 100 µM | EC50 (SARS; SARS, Visual, read-out: EC50): > 100 µM | EC50 (Flu A (H5N1); Flu A (H5N1), NR, MDCK, read-out: EC50): 29 µM | EC50 (Flu A (H5N1); Flu A (H5N1), Visual, MDCK, read-out: EC50): 32 µM | EC50 (Flu A (H1N1); NR, MDCK, read-out: EC50): > 32 µM | EC50 (Flu A (H1N1); Visual, MDCK, read-out: EC50): > 32 µM | EC50 (Flu A (H3N2); Flu A (H3N2), NR, MDCK, read-out: EC50): > 32 µM | EC50 (Flu A (H3N2); Flu A (H3N2), Visual, MDCK, read-out: EC50): > 32 µM

7-Deaza-7-Amino-Neplanocin A [Compound 23]
stability [4]: not stable; also recorded: slowly decomposed in room temperature

NC(=O)c1cn(C2C=C(CO)C(O)C2O)cn1 (stereo not shown) [Compound 17b, 1-(4,5-Dihydroxy-3-hydroxymethyl-cyclopenten-2-enyl)-1H-imidazole-4-carboxylic acid amide]
antiviral activity [5]: did not show any significant antiviral activity

Nc1ncnc2c1ccn2[C@@H]1C=C(CO)[C@@H](O)[C@H]1O [7-deaza neplanocin A]
EC90 (Vaccinia; Vaccinia, HFF cells, CPE reduction assay): 21.5 µM | EC50 (Vaccinia; Vaccinia, HFF cells, CPE reduction assay, read-out: EC50): 3.4 µM | EC90 (Cowpox; Cowpox, HFF cells, CPE reduction assay): 4.6 µM | EC50 (Cowpox; Cowpox, HFF cells, CPE reduction assay, read-out: EC50): 1.2 µM | CC50 (HFF cells): > 300 µM | cytotoxicity (none up to) (HFF cells): > 300 µM
